# Results: patent US10653691B2, “Method of promoting remyelination” (Case Western Reserve University, priority 2013, dated 2020)
# Columns and labels:
# ERK1/2 = assay: Western blot of ERK1/2 phosphorylation in OPCs; format: cell-based, mouse; settings: for induction of ERK1/2 phosphorylation in OPCs: OPCs treated for 1 h
# Experimental: EpiSC-derived OPCs were seeded into poly-Lornithine/laminin coated six-well plates and allowed to attach for 2 h in DMEM/F12 without additional factors. Cells were treated with indicated inhibitors or DMSO for 1 h-SCH772984 (ChemieTek, […]), SB590885 (Tocris, 10 nM), LY294002 (Tocris, 10 μM), and PD0325901 (Stemgent, 1 μM). Cells were then stimulated with drug or FGF2 (R&DSystems; 20 ng ml^−1) for 1 h and then lysed in 200 μL RIPA buffer (0.15 M NaCl, 0.05M Tris, pH=8.0, 1 mM EDTA, 1% Triton X-100, 0.1% SDS, 10% glycerol, HALT protease and phosphatase inhibitor (Thermo Fisher) added just before use) and incubated on ice for 20 min. Lysates were centrifuged at 4° C. and supernatant collected. Protein concentrations were determined by Pierce BCA protein assay kit (Thermo Fisher). Equal amounts of protein were resolved in a reduced manner on NuPAGE 4-12% Bis-Tris gels (Life Technologies) and transferred onto PVDF membranes (Life Technologies). Blots were blocked in either 5% BSA (phosphoprotein) or 5% milk (non phosphoprotein). Primary antibodies were all from the same vendor (Cell Signaling) and included phospho-Erk1/2 (4370S, clone D13.14.4E; 1:2,000), ERK1/2 (9107S, clone 3A7; 1:2,000), phospho-glucocorticoid receptor (4161S; 1:1,000), and glucocorticoid receptor (12041, clone D6H2L; 1:1,000) followed by incubation with HRP-conjugated secondary antibodies and chemiluminescent enhancement by West Pico substrate (Thermo Fisher).
# [1] = system: mouse epiblast stem cell (EpiSC)-derived OPCs; assay: Primary in vitro phenotypic screen of OPCs (MBP process length and intensity, high content imaging); format: cell-based; settings: 5 μM, 72 h, 727 drugs
# Experimental: For the primary screen, OPCs were treated with vehicle alone (0.05% (v/v)DMSO) as a negative control, thyroid hormone (a known OPC differentiation inducer) as a positive control, or drug dissolved in DMSO at a concentration of 5 μM. After 72 h, cells were fixed and labeled with antibodies to myelin basic protein (MBP) and the length and intensity of MBP labeled oligodendrocyte processes measured (FIG. 1A). These features were reliable indicators of alteration in cellular phenotype, as indicated by consistency and high signal to background ratio of positive and vehicle controls across all screening plates (FIG. 5D-G). […] On the basis of this analysis, we identified the 22 drugs that enhanced oligodendrocyte formation greater than five standard deviations above DMSO treatment and outperformed thyroid hormone in the measured parameters (FIG. 1B).
# EpiSC-derived OPCs were seeded onto poly-D-lysine 96-well Viewplate or CellCarrier plates (PerkinElmer) coated with laminin (Sigma, L2020; 10 μgml^−1) using electronic multichannel pipetors. […] All plates for the primary screen were processed and analyzed simultaneously to eliminate variability.
# For the 5 μM in vitro screen, stained plates were imaged on the Opera confocal imaging system (PerkinElmer) and a set of 24×10 fields were collected from each well, resulting in an average of 10,000 cells being scored per well. […]
# MOG35-55 EAE mouse model = assay: MOG35-55 chronic progressive EAE model
# Experimental: Immunohistochemistry was performed as previously described. In short, tissue sections or whole slices were washed three times in PBS, blocked in PBS containing Triton X-100 (0.1%) and normal donkey serum (NDS, 2% for sections and 10% for cerebellar slices) and incubated with primary antibody overnight. For MBP immunohistochemistry, the primary antibody solution consisted of 2% NDS, 2% bovine serum albumin, and 0.1% saponin. For all other antibodies, the primary antibody solution consisted of 2% NDS and 0.1% Triton X-100. Primary antibodies used included rat anti-MBP (Abcam, ab7349; 1:100), mouse anti-APC CC1 clone (Millipore, MABC200; 1:500), and rabbit anti-IBA1 (Wako Chemicals, 019-19741; 1:1,000). The tissue was then washed in PBS and incubated in secondary antibodies for […]. Secondary detection was performed with Alexa Fluor-conjugated secondary antibodies (1:500) for 1 h. Luxol fast blue staining was performed as previously described.
# Samples were processed as previously described. In short, samples were osmicated, stained en bloc with uranyl acetate, and embedded in EMbed 812, an Epon-812 substitute (EMS). Sections (1 μm) were cut and stained with toluidine blue and visualized on a light microscope (Leica DM5500B). Additional thin sections were cut, carbon coated and imaged either on a JEOL JEM-1200-EX electron microscope or a T12 electron microscope (FEI).
# EAE was induced by immunizing 10-week-old C57BL/6 female mice with […] injection of […] complete Freund's adjuvant emulsion (Hooke Laboratories). One hour after immunization, mice were given 100 ng of pertussis toxin by 100 μl intraperitoneal injection. A second dose of pertussis toxin was administered the next day. EAE onset was monitored daily and scored using a clinical scale where 0 represented no abnormality; 1, limp tail; 2, limp tail and hind limb weakness; 3, hind limb paralysis; 4, hind limb paralysis and forelimb weakness; and 5, moribund. […] Once mice reached peak of disease ˜day 15; clinical score=3) they were randomized into treatment groups, and drug or vehicle (DMSO in saline) was administered intraperitoneally daily for 10 days (n=12-16 mice per group). […] Experimenters were blinded to the identity of the treatments and animals were scored daily. Cumulative disease scores for each animal were calculated during the treatment period, and a two-tailed t-test compared drug—with vehicle-treated groups. The extent of recovery for each animal was calculated as the difference between the peak disease score and the score at the end of each experiment, and a two-tailed t-test was used to compare each treatment with vehicle. External validation of MOG35-55 EAE experiments (n=12 mice per group) was performed at Hooke Laboratories with experimenters blinded to the identity of the substances.
# mouse OPCs = assay: OPC differentiation into MBP+ oligodendrocytes; format: cell-based; settings: 72 h, seven doses 0.01-6.7 μM
# Experimental: EpiSC-derived OPCs were seeded onto poly-D-lysine 96-well Viewplate or CellCarrier plates (PerkinElmer) coated with laminin (Sigma, L2020; 10 μgml^−1) using electronic multichannel pipetors. For the primary screen, 30,000 cells were seeded per well in screening medium (DMEM/F12 supplemented with N2 (R&D Systems), B-27 (Life Technologies), neurotrophin 3 (R&D Systems; 10 ng ml^−1), cAMP (Sigma; 50 μM), IGF-1 (R&D Systems; 100 ng ml^−1), noggin (R&D Systems; 100 ngml^−1)) and allowed to attach for 2 h before addition of drug. NIH Clinical Collection I and II drugs were added to assay plates with 0.1 ml pin replicators (Molecular Devices, Genetix; X5051), resulting in a final primary screening concentration of 5 μM. Thyroid-hormone-positive controls and DMSO vehicle controls were included in each assay plate. Cells were incubated under standard conditions (37° C., 5% CO2) for 3 days and fixed with 4% paraformaldehyde (PFA) in phosphate buffered saline (PBS). Fixed plates were permeabilized with 0.1% Triton X-100 and blocked with 10% donkey serum (v/v) in PBS for 2 h. Cells were labelled with MBP antibodies (Abcam, ab7349; 1:100) for 1 h at room temperature (˜22° C.) followed by detection with Alexa Fluorconjugated secondary antibodies (1:500) for 45 min. Nuclei were visualized by DAPI staining (Sigma; 1 μgml^−). All plates for the primary screen were processed and analyzed simultaneously to eliminate variability.
# For the 5 μM in vitro screen, stained plates were imaged on the Opera confocal imaging system (PerkinElmer) and a set of 24×10 fields were collected from each well, resulting in an average of 10,000 cells being scored per well. For the dose-response (6.7 μM, 5 μM, 3.3 μM, 1.7 μM, 666 nM, 500 nM, and 333 nM) in vitro assays, plates were imaged on the Operetta High Content Imaging and Analysis system (PerkinElmer) and a set of 14×20 fields captured from each well resulting in an average of 3,300 cells being scored per well. […] Each traced nucleus region was then expanded by 50% and cross-referenced with the mature myelin protein (MBP or PLP1) stain to identify oligodendrocyte nuclei, and from this the percentage of oligodendrocytes was calculated. Processes emanating from oligodendrocyte nuclei were identified using the CSIRO2 analysis module within a custom Acapella script. Maximum mean process length (denoted ‘process length’) and mean process intensity (denoted ‘process intensity’) were generated on a per well basis. For the 5 μM in vitro screen, values were calculated and normalized to 100 for thyroid hormone (positive control)-treated wells and to 0 for DMSO(vehicle)-treated wells, on a per plate basis.
Structure (SMILES),hit status / activity in the primary screen (MBP process length and intensity) [1],induction of ERK1/2 phosphorylation in OPCs (ERK1/2),other results
O=C(NOC[C@H](O)CO)c1ccc(F)c(F)c1Nc1ccc(I)cc1F [PD0325901],,,"block of miconazole-induced ERK1/2 phosphorylation (ERK1/2; OPCs, inhibitor 1 μM for 1 h, then miconazole): blocked the ability of miconazole to induce ERK1/2 phosphorylation"
COc1cc2c(cc1OC)C(=O)C(CC1CCN(Cc3ccccc3)CC1)C2 (centres unmarked) [Donepezil],identified in the primary screen,,
CN1[C@@H]2CC[C@H]1C[C@@H](OC(c1ccccc1)c1ccccc1)C2 [benztropine],one of the top 22 drugs,did not induce ERK1/2 phosphorylation,"areas of myelin disruption in the white matter (luxol fast blue, MBP immunohistochemistry) (MOG35-55 EAE mouse model; cervical spinal cords): decrease in areas of myelin disruption in the white matter; functional improvement (disease score) (MOG35-55 EAE mouse model; daily i.p. for 10 days from peak of disease, miconazole 10 mg/kg, clobetasol 2 mg/kg, benztropine 10 mg/kg): functional improvement, but to a lesser extent than miconazole and clobetasol"
C[C@@H](c1ncncc1F)[C@](O)(Cn1cncn1)c1ccc(F)cc1F [voriconazole],,failed to induce changes in ERK1/2 phosphorylation,differentiation of OPCs into oligodendrocytes (mouse OPCs): did not promote the differentiation of OPCs into oligodendrocytes
